27 compounds from patent US10703735B2, “4-phenyl-coumarin derivatives, processes for their preparation and uses thereof for the treatment of cancer” (Lead Discovery Center GmbH, priority 2018, dated 2020) can be followed below.

mitochondrial RNA-polymerase (POLRMT), sequence (Q8BKF1 42-1207): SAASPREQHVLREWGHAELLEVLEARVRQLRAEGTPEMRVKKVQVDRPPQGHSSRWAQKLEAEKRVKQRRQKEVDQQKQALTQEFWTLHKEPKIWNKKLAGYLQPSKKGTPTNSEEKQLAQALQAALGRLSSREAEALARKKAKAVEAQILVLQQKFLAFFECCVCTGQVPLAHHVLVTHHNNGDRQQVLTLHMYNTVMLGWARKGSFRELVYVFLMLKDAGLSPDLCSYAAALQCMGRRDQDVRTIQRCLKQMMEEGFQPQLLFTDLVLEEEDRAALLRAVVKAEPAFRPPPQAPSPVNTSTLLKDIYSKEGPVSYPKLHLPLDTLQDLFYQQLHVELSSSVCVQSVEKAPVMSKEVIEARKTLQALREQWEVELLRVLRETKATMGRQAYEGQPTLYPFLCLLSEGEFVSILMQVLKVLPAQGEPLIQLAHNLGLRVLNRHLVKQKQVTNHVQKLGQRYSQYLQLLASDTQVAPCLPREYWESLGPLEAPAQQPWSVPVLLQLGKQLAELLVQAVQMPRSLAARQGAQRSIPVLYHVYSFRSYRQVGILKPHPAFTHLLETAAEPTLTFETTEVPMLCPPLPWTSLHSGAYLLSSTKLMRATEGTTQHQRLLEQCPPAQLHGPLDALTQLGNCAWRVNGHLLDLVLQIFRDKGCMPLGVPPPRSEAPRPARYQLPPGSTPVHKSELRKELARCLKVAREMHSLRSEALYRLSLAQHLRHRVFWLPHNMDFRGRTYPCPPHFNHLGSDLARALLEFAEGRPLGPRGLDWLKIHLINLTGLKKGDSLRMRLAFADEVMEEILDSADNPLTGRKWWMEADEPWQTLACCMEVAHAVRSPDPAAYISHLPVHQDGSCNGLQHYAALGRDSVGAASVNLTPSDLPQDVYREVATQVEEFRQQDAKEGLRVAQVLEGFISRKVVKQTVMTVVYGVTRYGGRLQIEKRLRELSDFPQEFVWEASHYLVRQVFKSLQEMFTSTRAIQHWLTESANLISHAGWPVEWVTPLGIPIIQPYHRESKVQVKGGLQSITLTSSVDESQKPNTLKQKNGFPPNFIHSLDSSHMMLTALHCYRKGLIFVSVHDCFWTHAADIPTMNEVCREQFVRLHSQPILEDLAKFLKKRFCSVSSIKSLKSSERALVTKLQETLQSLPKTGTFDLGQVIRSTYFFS

The first assay relates to mitochondrial transcription (7S RNA) in HeLa cells. Nature of the assay: Quantitative real time-PCR assay of inhibition of mitochondrial transcription (7S RNA) in HeLa cells. It counts as cell-based. As to conditions: Homo sapiens, 4 h incubation, Example 5, read-out: cellular qPCR assay IMT (IC-50). The procedure: Quantitative real-time PCR (qRT-PCR), based on the TaqMan™ (Thermo Fisher Scientific, Waltham Mass.) technology, was carried out essentially as described in (Heid et al. 1996). HeLa cells were plated one day before compound treatment in RPMI medium supplemented with 10% Fetal Calf Serum and 2 mM L-glutamine. Cells were incubated with dilution series of compounds or vehicle (DMSO) for 4 h, prior to harvest and extraction of the RNA using the RNeasy Mini Kit (Qiagen, Hilden D), according to the manufacturer's instructions. RNA concentrations were measured spectroscopically, using a NanoDrop-2000 (Thermo Fisher Scientific, Waltham Mass.) and normalized prior to cDNA synthesis, using a ‘High-Capacity cDNA Reverse Transcription Kit’ (Thermo Fisher Scientific, Waltham Mass.). qRT-PCR was carried out using the ‘TaqMan Fast Advance Master Mix’ (Thermo Fisher Scientific, Waltham Mass.) on a 7500 Fast Real-Time PCR machine (Applied Biosystems, Foster City Calif.)
For these measurements, three genes were used to compare the effect of the scrutinized compounds in relation to their concentration. The POLRMT-gene was used to detect potential influences on nuclear transcription. Mitochondrial transcription in vivo was monitored by measurements 7S RNA. The TBP (TATA-box binding protein) gene was employed as the control (housekeeping gene) during qRT-PCR. The short-lived mitochondrial 7S RNA, which is not post-transcriptionally stabilized, allowed us to monitor rapid changes in mitochondrial transcription activity following compound addition. Biological triplicates were analyzed using the comparative CT Method (ΔΔCt) method (Bubner et al. 2004) and reported as Rq % values (Rq=Relative quantification=2-ΔΔCt).
Take `CC(C)OC(=O)C(C)Oc1ccc2c(-c3ccccc3)cc(=O)oc2c1` (centres unmarked) [Compound 53, isopropyl 2-(2-oxo-4-phenyl-chromen-7-yl)oxypropanoate]: the IC50 is less than 10 nM.
Still for that read-out and setting: the value for `C[C@@H](Oc1ccc2c(-c3ccccc3)cc(=O)oc2c1)C(=O)N(C)C` [Compound 34, (2R)-N,N-dimethyl-2-(2-oxo-4-phenyl-chromen-7-yl)oxy-propanamide] was 10 to 50 nM.
For `COC(=O)C1CCCN(C(=O)C(C)Oc2ccc3c(-c4ccccc4)cc(=O)oc3c2)C1` (centres unmarked) [Compound 15, methyl 1-[2-(2-oxo-4-phenyl-chromen-7-yl)oxypropanoyl]piperidine-3-carboxylate], the IC50 was in the range of 50 to 500 nM.
Regarding `CC(Oc1ccc2c(-c3ccccc3)cc(=O)oc2c1)C(=O)N(C)C` (centres unmarked) [Compound 2, N,N-dimethyl-2-(2-oxo-4-phenyl-chromen-7-yl)oxy-propanamide], the IC50 was in the range of 10 to 50 nM.
Consider `CCOC(=O)C(C)Oc1ccc2c(-c3cccc(F)c3)cc(=O)oc2c1` (centres unmarked) [Compound 7, ethyl 2-[4-(3-fluorophenyl)-2-oxo-chromen-7-yl]oxypropanoate], for which the IC50 lay within 10 to 50 nM.

The target of the next assay is mitochondrial RNA-polymerase (POLRMT) (Mus musculus, UniProt Q8BKF1). Nature of the assay: Homogeneous TR-FRET assay for mitochondrial transcription activity. It counts as biochemical. Particulars: homogeneous TR-FRET assay according to Example 4; read-out: mitochondrial transcription activity (IC-50). An excerpt:
The TR-FRET assay was basically conducted as described in WO 2016/193231A1, especially as described in example 1 (hereby incorporated by reference). With respect to the background of the mitochondrial transcription it is referred to Falkenberg et al. (2002) and Posse et al. (Posse et al. 2015). The method monitors the activity of mitochondrial RNA-polymerase via detection of the formation of its product, a 407 bp long RNA sequence. Detection of the product is facilitated by hybridization of two DNA-oligonucleotide probes to specific and adjacent sequences within the RNA product sequence. Upon annealing of the probes, two fluorophores that are coupled directly to an acceptor nucleotide probe (ATT0647, 5′) or introduced via a coupled streptavidin interacting with a biotinylated donor nucleotide probe on the other side (Europium cryptate, 3) are brought into sufficient proximity to serve as a fluorescence-donor-acceptor pair as generally described in Walters and Namchuk (2003). Thus, a FRET signal at 665 nm is generated upon excitation at 340 nm.
Briefly, the protocol described here was applied for screening and activity determination in a low-volume 384-well microtiter plate with non-binding surface. For high-throughput application in the 1536-well microtiter plate format, volumes of the reagent mixes were adjusted, maintaining the volumetric ratio. Proteins POLRMT (NM_172551.3), TFAM (NM_009360.4) and TFB2M (NM_008249.4) were diluted from their stocks to working concentrations of 150 nM, 1.8 μM and 330 nM respectively, in a dilution buffer containing 100 mM Tris-HCl pH 8.0, 200 mM NaCl, 10% (v/v) glycerole, 2 mM glutathione (GSH), 0.5 mM EDTA and 0.1 mg/mL BSA. Protein dilutions and template DNA, comprising a pUC18 plasmid encoding the mitochondrial light strand promoter, restriction linearized proximal to the promoter 3′-end (pUC-LSP), were mixed at the twofold final assay-concentration in a reaction buffer, containing 10 mM Tris-HCl pH 7.5, 10 mM MgCl2, 40 mM NaCl, 2 mM GSH, 0.01% (w/v) Tween-20 and 0.1 mg/mL BSA.
5 μL of this mix were dispensed, depending on the chosen microtiter plate format, using multi-channel pipettes or a Multidrop® dispenser (Thermo Fisher Scientific, Waltham Mass.) into the wells of a microtiter plate and incubated at room temperature (RT) for 10 min. Chemical compounds under scrutiny in the assay were applied using contact-free acoustic droplet-dispensing (Echo520® Labcyte Inc., Sunnyvale Calif.) from 10 mM compound stocks in 100% DMSO, to a final concentration of 10 μM or in serial dilution series of the required concentration range. Equal amounts of DMSO without any compound were added to positive control samples, followed by an incubation step at RT for 10 min.
The enzymatic reaction was started by the addition of 5 μL of a mix of dNTPs in reaction buffer to a final concentration of 500 μM each. No nucleotide mix was added to negative control samples. The content of the wells was mixed using a VarioTeleshaker™ (Thermo Fisher Scientific, Waltham Mass.) at 1500 rpm for 45 sec after which the microtiter plate was centrifuged at 500×g for 1 min. The samples were incubated for 2 h at RT with humidity control to avoid evaporation. The detection reagents were prepared in a buffer that was composed, such that the enzymatic reaction was terminated due to chelating of Mg-ions and increased ionic strength, containing 50 mM Tris-HCl pH 7.5, 700 mM NaCl, 20 mM EDTA, and 0.01% (w/v) Tween-20. Importantly Eu-cryptate-coupled streptavidin had to be preincubated with a 100-fold molar excess of a random sequence oligonucleotide for 10 min at RT in the dark to block unspecific binding of single stranded RNA to the protein. Subsequently, the blocked streptavidin(-Eu) was mixed with the DNA-probes on ice and kept away from light until use. […]
For orientation: Time-resolved FRET reads energy transfer from a long-lived donor to a nearby acceptor.
Turning to `CC(C)OC(=O)C(C)Oc1ccc2c(-c3ccccc3)cc(=O)oc2c1` (centres unmarked) [Compound 53, isopropyl 2-(2-oxo-4-phenyl-chromen-7-yl)oxypropanoate], the IC50 fell in the range of 20 to 100 nM.
Same read-out and setting: the value for `C[C@@H](Oc1ccc2c(-c3ccccc3)cc(=O)oc2c1)C(=O)N(C)C` [Compound 34, (2R)-N,N-dimethyl-2-(2-oxo-4-phenyl-chromen-7-yl)oxy-propanamide] was 100 to 1000 nM; that for `COC(=O)C1CCCN(C(=O)C(C)Oc2ccc3c(-c4ccccc4)cc(=O)oc3c2)C1` (centres unmarked) [Compound 15, methyl 1-[2-(2-oxo-4-phenyl-chromen-7-yl)oxypropanoyl]piperidine-3-carboxylate] was 100 to 1000 nM; that for `CC(Oc1ccc2c(-c3ccccc3)cc(=O)oc2c1)C(=O)N(C)C` (centres unmarked) [Compound 2, N,N-dimethyl-2-(2-oxo-4-phenyl-chromen-7-yl)oxy-propanamide] was 100 to 1000 nM.
The same measure, in the same setting: the value for `CCOC(=O)C(C)Oc1ccc2c(-c3cccc(F)c3)cc(=O)oc2c1` (centres unmarked) [Compound 7, ethyl 2-[4-(3-fluorophenyl)-2-oxo-chromen-7-yl]oxypropanoate] was 20 to 100 nM; that for `CC(Oc1cc2oc(=O)cc(-c3ccccc3)c2cc1Cl)C(=O)NCCN1CCOCC1` (centres unmarked) [Compound 79, 2-(6-chloro-2-oxo-4-phenyl-chromen-7-yl)oxy-N-(2-morpholinoethyl)propanamide] was 1000 to 10000 nM; that for `CNC(=O)C(C)Oc1ccc2c(-c3ccccc3)cc(=O)oc2c1` (centres unmarked) [Compound 26, N-methyl-2-(2-oxo-4-phenyl-chromen-7-yl)oxy-propanamide] was 100 to 1000 nM.
`CCCCOC(=O)COc1ccc2c(-c3ccccc3)cc(=O)oc2c1` [Compound 76, butyl 2-(2-oxo-4-phenyl-chromen-7-yl)oxyacetate]: the IC50 lay in the range of 1000 to 10000 nM.
Take `CCOC(=O)COc1cc2oc(=O)cc(-c3ccccc3)c2cc1Cl` [Compound 49, ethyl 2-(6-chloro-2-oxo-4-phenyl-chromen-7-yl)oxyacetate]: the IC50 fell in the range of 100 to 1000 nM.
For the compound `CC(Oc1ccc2c(-c3ccccc3)cc(=O)oc2c1)C(=O)Nc1ccccc1` (centres unmarked) [Compound 25, 2-(2-oxo-4-phenyl-chromen-7-yl)oxy-N-phenyl-propanamide], the IC50 lay within 100 to 1000 nM.
The same measure, in the same setting: the value for `O=C(COc1cc2oc(=O)cc(-c3ccccc3)c2cc1Cl)NC1C=CS(=O)(=O)C1` (centres unmarked) [Compound 95, 2-(6-chloro-2-oxo-4-phenyl-chromen-7-yl)oxy-N-(1,1-dioxo-2,3-dihydrothiophen-3-yl)acetamide] was 1000 to 10000 nM; that for `CC(Oc1ccc2c(-c3ccccc3)cc(=O)oc2c1)C(=O)OCc1ccccc1` (centres unmarked) [Compound 93, benzyl 2-(2-oxo-4-phenyl-chromen-7-yl)oxypropanoate] was 1000 to 10000 nM; that for `O=C(COc1cc2oc(=O)cc(-c3ccccc3)c2cc1Cl)N1CCCc2ccccc21` [Compound 78, 6-chloro-7-[2-(3,4-dihydro-2H-quinolin-1-yl)-2-oxo-ethoxy]-4-phenyl-chromen-2-one] was 1000 to 10000 nM.
On the same count and under the same terms, the value for `O=C(O)COc1cc2oc(=O)cc(-c3ccccc3)c2cc1Cl` [Compound 88, 2-(6-chloro-2-oxo-4-phenyl-chromen-7-yl)oxyacetic acid] was 1000 to 10000 nM; that for `CC(Oc1ccc2c(-c3ccccc3)cc(=O)oc2c1)C(=O)NCCN1CCOCC1` (centres unmarked) [Compound 70, N-(2-morpholinoethyl)-2-(2-oxo-4-phenyl-chromen-7-yl)oxy-propanamide] was 1000 to 10000 nM.
With `CC(Oc1ccc2c(-c3ccccc3)cc(=O)oc2c1)C(=O)Nc1ccc(CCO)cc1` (centres unmarked) [Compound 16, N-[4-(2-hydroxyethyl)phenyl]-2-(2-oxo-4-phenyl-chromen-7-yl)oxy-propanamide], the IC50 lay in the range of 100 to 1000 nM.
Take `CCOC(=O)C(C)Oc1ccc2c(-c3ccc(Cl)cc3)cc(=O)oc2c1` (centres unmarked) [Compound 3, ethyl 2-[4-(4-chlorophenyl)-2-oxo-chromen-7-yl]oxypropanoate]: the IC50 fell in the range of 100 to 1000 nM.
Same read-out and setting: under `CC(Oc1ccc2c(-c3ccccc3)cc(=O)oc2c1)C(=O)N1CCCC(C(N)=O)C1` (centres unmarked) [Compound 60, 1-[2-(2-oxo-4-phenyl-chromen-7-yl)oxypropanoyl]piperidine-3-carboxamide] stands 1000 to 10000 nM.
For `CCN(CC)C(=O)COc1cc2oc(=O)cc(-c3ccccc3)c2cc1Cl` [Compound 47, 2-(6-chloro-2-oxo-4-phenyl-chromen-7-yl)oxy-N,N-diethyl-acetamide], the IC50 lay within 100 to 1000 nM.
The same measure, in the same setting: the value for `CC(Oc1ccc2c(-c3ccccc3)cc(=O)oc2c1)C(=O)N1CCC[C@H](C(=O)O)C1` (stereo partly drawn) [Compound 36, (3S)-1-[2-(2-oxo-4-phenyl-chromen-7-yl)oxypropanoyl]piperidine-3-carboxylic acid] was 100 to 1000 nM.
For the compound `CCCOC(=O)COc1cc2oc(=O)cc(-c3ccccc3)c2cc1Cl` [Compound 92, propyl 2-(6-chloro-2-oxo-4-phenyl-chromen-7-yl)oxyacetate], the IC50 fell in the range of 1000 to 10000 nM.
With `CC(C)COC(=O)COc1ccc2c(-c3ccccc3)cc(=O)oc2c1` [Compound 77, isobutyl 2-(2-oxo-4-phenyl-chromen-7-yl)oxyacetate], the IC50 is 1000 to 10000 nM.
For `CC(Oc1ccc2c(-c3ccccc3)cc(=O)oc2c1)C(=O)N1CCC[C@@H](C(=O)O)C1` (stereo partly drawn) [Compound 37, (3R)-1-[2-(2-oxo-4-phenyl-chromen-7-yl)oxypropanoyl]piperidine-3-carboxylic acid], the IC50 fell in the range of 1000 to 10000 nM.
Turning to `NC(=O)COc1cc2oc(=O)cc(-c3ccccc3)c2cc1Cl` [Compound 84, 2-(6-chloro-2-oxo-4-phenyl-chromen-7-yl)oxyacetamide], the IC50 is 1000 to 10000 nM.
For `CC(Oc1cc2oc(=O)cc(-c3ccccc3)c2cc1Cl)C(=O)Nc1ccccn1` (centres unmarked) [Compound 11, 2-(6-chloro-2-oxo-4-phenyl-chromen-7-yl)oxy-N-(2-pyridyl)propanamide], the IC50 was in the range of 100 to 1000 nM.
On the same count and under the same terms, under `CC(Oc1ccc2c(-c3ccccc3)cc(=O)oc2c1)C(=O)O` (centres unmarked) [Compound 51, 2-(2-oxo-4-phenyl-chromen-7-yl)oxypropanoic acid] stands 100 to 1000 nM; under `O=C(COc1cc2oc(=O)cc(-c3ccccc3)c2cc1Cl)NCc1cccnc1` [Compound 59, 2-(6-chloro-2-oxo-4-phenyl-chromen-7-yl)oxy-N-(3-pyridylmethyl)acetamide], 1000 to 10000 nM.
